From patent publication US11865104B2, “Antitumor TET2 modulating compounds” (THE CLEVELAND CLINIC FOUNDATION, priority 2017, dated 2024)
pIC50: −log10 of the molar value. Entries after “also recorded” stand apart in the source; their conditions may differ.

Key:
[1] = system: MOLM and K562 TET2 knockdown cells; assay: Culture of TET2 knockdown cell lines; format: cell-based; conditions: preliminary experiments
[2] = system: Gulo^−/−Tet2^+/− cells; assay: hmC level in Gulo^−/−Tet2^+/− cells; format: cell-based
Description: We optimized assays to assess the impact of mutation or haploinsufficiency on dioxygenase activity in our laboratory. We deployed 2 independent methods for the quantification of hmC/mC. First, a semi quantitative method of dot blot and second a highly sensitive 2D-UPLCMS method. These methods were used to determine the relative activity of TET2 enzymatic function. We can quantify TET2 dioxygenase activity products in cell lines and patient's bone marrow cells with various types of TET2^MT (FIG. 3E) in genetically modified (retrovirally-transduced TET2 shRNA) K562 and MOLM13 cells and bone marrow from Tet2^−/− and Tet^+/− mice. As expected, haploinsufficiency of TET2 leads to gene-dose dependent decreases in 5hmC and further oxidized products.

[3] = system: K562 TET2^KO cells; assay: Colony forming assay in TET2 knock-out K562 cells; format: cell-based, human; conditions: K562 TET2^KO vs K562
Description: (§1) FIGS. 3A-3G provide graphs showing the In-vitro efficacy of TETi in the elimination of TET2MTcells. A. Leukemia cell lines express different level of TET2. B. Ratio of TET2 expression vs. Lamin C. The dose response curves of cell survival with different concentration of TETi76 D. LD50 plotted against the relative expression of TET2 and C. E. Colony forming abilities of K562 TET2^+/+ and TET2^−/− cells in the presence and absence of TETi76. Data is representative of 3 independent experiment performed separately. F. Colony forming abilities of two independent normal bone marrow cells (NBM) and SIGM5 cells in MethoCult in the presence and absence of TETi76. Data is the summary of three independent experiments performed separately. G. Bone marrow from Tet2^+/+, Tet2^+/− and Tet2^−/− mice were harvested and cultured in MethoCult in the presence or absence of TETi76.
(§2) Efficacy and specificity of TETi. We used established tet2^+/− vs. tet2^−/− mouse models as well as several human myeloid cell lines selected to harbor TET2^MT or to express low level of TET2 to determine the specificity, establish the read out and provide proof of concept for the proposed strategy. […] The IC50 of different cells against TETi76 is inversely correlated with TET-activity (FIG. 3).

[4] = system: HEL01; assay: Growth suppression / cell survival dose response in leukemia cell lines; format: cell-based, human; conditions: HEL01, high TET2 expressing
Description: as §1, §2

[5] = system: K562; assay: as above; format: cell-based, human; conditions: K562, high TET2 expressing
Description: as §1, §2

[6] = MTD by dose escalation in mice; conditions: mouse, in vivo
Procedure: To further validate the feasibility of our proposed strategy as a therapeutic principle, we used mixing experiments in which tet2^MT/tet2^WT were co-cultured at fixed ratios to mimic evolving tet2MT clone and the differences in isoform fractions served as read out. In long-term culture of normal marrow from B6Cd45.1 Pep Boy vs. B6CD45.2 mice of tet2^+/− and tet2^−/− genetic background. Marrow cell from 3 mice/group were cultured in 1:2 ratio of tet2^MT/tet2^WT with/without TETi. Over the period of culture TETi effectively eliminated otherwise dominating tet2^+/− cells (FIG. 4). As expected, tet2^MT grew at faster rate in the controls as reflected in the increased ratio >1:1 of tet2^MT/tet2^WT, while TETi treatment selectively eliminated the tet2^MT cells as determined using CD45.1/CD45.2 surface markers on tet2^WT and tet2^MT bone marrow, respectively (FIGS. 4A&B). […] In vivo efficacy of TETi. […] First we determined MTD utilizing a dose escalation in a group of 3 mice each. […] The MTD was determined at 168 mg/kg. […] Once mice were fully recovered as determined by their weight, the ratio of tet2^MT and tet2^WT marrow was confirmed by CD45.1/CD45.2 cytometry prior to treatment. […] Ratio of CD45.2 vs. CD45.1 was determined at different time points (FIGS. 4D&E). […]

[7] = system: SIGM5; assay: Growth suppression / cell survival dose response in leukemia cell lines; format: cell-based; conditions: Homo sapiens, SIG-M5; SIGM5, least TET2 expression
Description: as §1, §2

[8] = system: MOLM13; assay: as above; format: cell-based; conditions: Homo sapiens, MOLM-13; MOLM13, least TET2 expression
Description: as §1, §2

[9] = system: tet2^MT clones; assay: In vivo mixed bone marrow transplant, CD45.2 vs CD45.1 ratio; set-up: species or system mice; conditions: 80 mg/kg 5 days/week, irradiated CD45.1 recipients transplanted with mixed marrow
Procedure: FIGS. 4A-4E provide graphs and images showing the In-vivo efficacy of TETi in the elimination of cells with TET2^MT. […] Tet^mt bone marrow cells were mixed in the ratio of 1:2 with tet2^+/+ bone marrow cells isolated from Pep (CD45.1). The mixed bone marrow cells were treated either with DMSO or with TETi76 in MethoCult™. Cells were isolated and ratio of CD45.1 (Pep, tet2^+/+) and CD45.2 (tet2mt) was determined by flow using antibodies against CD45.1 and CD45.2. B. Tet2^+/− bone marrow cells were mixed in the ratio of 1:2 with Tet2^+/+ in MethoCult with the treatment of DMSO or TETi76. Ratio of Tet2^+/− vs Tet2^+/+ was measured by flow. C. […] Ratio of Tet2^+/− vs Tet2^+/+ was measured by flow. […] CD45.1+ vs. CD45.2+ was serially assessed.
To further validate the feasibility of our proposed strategy as a therapeutic principle, we used mixing experiments in which tet2^MT/tet2^WT were co-cultured at fixed ratios to mimic evolving tet2MT clone and the differences in isoform fractions served as read out. […] As expected, tet2^MT grew at faster rate in the controls as reflected in the increased ratio >1:1 of tet2^MT/tet2^WT, while TETi treatment selectively eliminated the tet2^MT cells as determined using CD45.1/CD45.2 surface markers on tet2^WT and tet2^MT bone marrow, respectively (FIGS. 4A&B). […] First we determined MTD utilizing a dose escalation in a group of 3 mice each. […]

| Structure (SMILES) | inhibitory effects compared to cells with scrambled shRNA [1] | levels of TET2 product hmC [2] | colony forming, effect of TET2 knock-out on sensitivity [3] | sensitivity to treatment [4] | sensitivity to treatment [5] | mortality at MTD [6] | MTD at 3 months ([6]; dose escalation, groups of 3 mice, 5 days a week, weekly dose increments) | pIC50 [7] | pIC50 [8] | growth of tet2^MT clones in vivo (ratio CD45.2 vs CD45.1) [9] |
| --- | --- | --- | --- | --- | --- | --- | --- | --- | --- | --- |
| O=C1O[C@H]([C@@H](O)CO)C(O)=C1O [vitC, vitamin C] | differential and dose-dependent inhibitory effects | increases levels of the TET2 product hmC |  |  |  |  |  |  |  |  |
| C=C(CC(O)C(=O)OCC)C(=O)OCC (centres unmarked) [TETi76] |  |  | sensitized these cells to TETi76 | lowest sensitivity | lowest sensitivity | no mortality | 168 mg/kg | 4.95 | 5.02 | most pronounced against tet2^−/− compared to tet2^+/− genotype; also recorded: prevents clonal expansion Tet2MT cells in vivo |
| COC(=O)CCC(=O)C(=O)OC [DMKG] | differential and dose-dependent inhibitory effects |  |  |  |  |  |  |  |  |  |
